Assay results from publication PMC9847679, “The anti-breast cancer stem cell properties of gold(I)-non-steroidal anti-inflammatory drug complexes” (Chemical Science, 2022).

Test: Tissue biodistribution of gold
Assay type: in vivo, BALB/c mice
Details: 4T1-bearing mice after 16 days treatment, 10 mg kg−1 IP
Procedure: tumour-size and body-weight measurements were performed three days a week, and the mice were euthanised after 16 days (n = 5 for 1 and n = 5 for vehicle control).
Tissue biodistribution of 1. Following the treatment o f mice with 1 for 16 days, each tissue (heart, lung, liver, spleen, kidney, and tumo ur) was excised from euthanised mice (n = 3).
The tissues were boiled for 5 h at 60 °C with 70% nitric acid (0.5 mL) , and then boiled again at 60 °C for 10 min with 35% hydrogen peroxide (0.5 mL). The solutions turned yellow, and were diluted as needed to measure the gold content using a Graphite Furnace Atomic Absorption Spectrometer. Before measuring all samples, th e standard solution curves were […]
Hematoxylin and eosin staining. The mice used in the in vivo comparative experiment of 1 and the vehicle control were sacrificed at day 16 post tumo ur cells (4T1) injection. The tissues (liver, kidney, and tumour) were fixed in freshly prepared paraformaldehyde (4% in PBS) for 24 h and processed for paraffin sectioning. Tissue sections of 5 µm were stained with hematoxylin and eosin and used for histological examination. A total of 3 sections per tissue (spanning the full depth of the tissue) were examined and photographed using a Nikon

COc1ccc2c(c1)c(CC(=O)[O][Au][PH](c1ccccc1)(c1ccccc1)c1ccccc1)c(C)n2C(=O)c1ccc(Cl)cc1 [complex 1]
gold content in the kidney: 15 μg g^−1 of tissue | gold content in tumour tissue: 3 μg g^−1 of tissue
